The nature of series [1]: Single-dose oral pharmacokinetic profile in mice. Particulars: male C57BL/6 mice, single oral dose 200 mg/kg; for CL/F / MRT / half-life / AUC(0-t) / Cmax: mouse, plasma. In kind it is in vivo. As to the method:
Presumed from promising Papp values (permeability coefficients, see below), the 5 inventors had proven the oral bioavailability of the inhibitors of the present application by the representative compounds II-3, II-15, and II-28. For this selected set of representative compounds, pharmacokinetic profiles were determined in male C57BL/6 mice (N=3, each). Briefly, the compounds were administered as single-dose soluble, oral formulation [20 mg/ml in PBS/(2—Hydroxypropyl)-β-cyclodextrin formulation] at 200 mg/kg. Plasma samples were taken at (0, 0.25, 0.5, 1, 2, 4, and 6 hours) and analyzed by LC-MS to determine the concentration of the representative compounds.

Series [2] in a line: logD by shake flask method (octanol / PBS pH 7.4, HPLC). It counts as physicochemical. Particulars: octanol / PBS pH 7.4, shake flask. A digest of the protocol: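 LogD obtained by HPLC measurement of how the compound distributes between PBS (pH 7.4) and octanol in a shake-flask experiment.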
For series [3], the target named is T1, recombinant human transglutaminase 2 (Homo sapiens, UniProt P21980).
T1 construct: purchased Zedira T022
T1 sequence (P21980 1-687): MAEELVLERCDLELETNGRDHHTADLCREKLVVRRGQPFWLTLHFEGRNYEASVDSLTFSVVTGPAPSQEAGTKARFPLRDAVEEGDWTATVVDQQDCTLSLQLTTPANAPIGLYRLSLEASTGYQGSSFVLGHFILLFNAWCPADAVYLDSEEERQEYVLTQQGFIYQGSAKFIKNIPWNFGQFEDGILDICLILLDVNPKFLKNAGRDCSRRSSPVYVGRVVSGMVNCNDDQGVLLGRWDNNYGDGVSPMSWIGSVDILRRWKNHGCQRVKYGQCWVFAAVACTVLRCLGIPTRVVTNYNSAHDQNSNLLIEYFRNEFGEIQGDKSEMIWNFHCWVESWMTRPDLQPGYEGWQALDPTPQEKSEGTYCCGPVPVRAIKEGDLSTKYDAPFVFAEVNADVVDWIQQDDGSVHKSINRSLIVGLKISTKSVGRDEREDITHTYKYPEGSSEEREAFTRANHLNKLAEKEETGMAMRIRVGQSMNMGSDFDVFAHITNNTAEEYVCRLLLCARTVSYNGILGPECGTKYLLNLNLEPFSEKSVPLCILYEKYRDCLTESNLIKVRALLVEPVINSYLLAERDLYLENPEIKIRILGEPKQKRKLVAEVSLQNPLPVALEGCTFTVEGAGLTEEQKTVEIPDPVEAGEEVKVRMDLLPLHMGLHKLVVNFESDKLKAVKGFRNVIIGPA
In words: Transglutaminase assay (DCC-assay): incorporation of dansylcadaverine into dimethylcasein. In kind it is biochemical. A digest of the protocol:
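IC50 is the inhibitor level that blocks 50% of initial activity. Activity is the fluorescence slope (λex 330, λem 500 nm) between 20 and 30 min of a 37 °C run, relative to a 2% DMSO control. The enzyme is recombinant human tissue transglutaminase, 10 nM final, tested against a 1:2 inhibitor dilution series in a pH 8.0 mix with 10 mM CaCl2, 10 mM glutathione, 16.7 µM dansylcadaverine and 4 µM N,N-dimethylcasein.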

A short description of series [4]: Caco-2 permeability assay (CacoReady kit). It counts as in vitro ADME. To be noted: human. A digest of the protocol:
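Compounds are tested on pre-formed Caco-2 barriers supplied as a ready-to-use kit, following the kit protocol, and the Papp value is derived to estimate intestinal absorption.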
Background: Caco-2 cells form a polarised layer with tight junctions and transporters.

Setting [5] is: TG2, table with the PK study, read-out: IC50.
The mark [6] stands for this setting: recombinant human TG2 10 nM, dansylcadaverine incorporation into dimethylcasein, read-out: IC50 TG2.
Where [7] appears, read: Caco-2, Caco-2, read-out: Papp [cm/s] ×10^−6.
[8] abbreviates: Caco-2, Caco-2 barrier, CacoReady kit, above 1×10^−6 cm/s classified as permeable.

Where two headings read alike, the source gives them in different places.

This is an account of results in US20240383856A1 (Zedira GmbH, priority 2021, published 2024).

A word on the CL/F: it is the apparent clearance, not corrected for the fraction that reaches the circulation. One may read the MRT as a mean duration of stay, worked out from the concentration-time curve. The term half-life denotes the time needed for the level to fall by half in the phase considered. The term AUC(0-t) denotes exposure summed from dosing to a finite time, without extrapolation to infinity. Low values mean low exposure, high ones high exposure. The term logD denotes lipophilicity at a set pH, counting ionised and neutral species. Read a low logD as lower lipophilicity. One may read the IC90 as the concentration at which the effect reaches the 90% level. The term IC50 denotes the concentration at which inhibition is half-maximal.

As for `CNC(=O)C(=O)CC[C@H](NC(=O)c1sc(C(F)(F)F)nc1C)C(=O)Nc1cccn(CC(=O)NC2C3CC4CC(C3)CC2C4)c1=O` (stereo partly drawn) [II-15, (S)-N1-(1-(2-(2-adamantylamino)-2-oxoethyl)-2-oxo-1,2-dihydropyridin-3-yl)-N6-methyl-2-(4-methyl-2-(trifluoromethyl)thiazole-5-carboxamido)-5-oxohexanediamide], in series [1], the “Kel” value turned out to be 0.9 h⁻¹, the CL/F is 102 mL/min/kg, the MRT worked out at 1.1 h and the half-life was 0.9 h. Moreover, in series [1], the AUC(0-t) stood at 36900 ng·h/mL. Also, the Cmax in series [1] (read-out: Cmax) is 48.6 µM. Further, the Cmax in series [1] (read-out: Cmax [ng/ml]) was 32300 ng/mL. In series [2], this compound showed a logD of 1 to 3. In addition, the IC90 in series [3] (TG2, table with the PK study) turned out to be 375 nM. Further, the half-maximal inhibitory concentration (IC50) in series [3] (setting [5]) worked out at 35 nM. Also, the half-maximal inhibitory concentration (IC50) in series [3] (setting [6]) was under 40 nM. In addition, the Papp in series [4] (setting [7]) turned out to be 5.9 ×10⁻⁶ cm/s. Moreover, the Papp in series [4] (setting [8]) was 1 to 10 ×10⁻⁶ cm/s.
On to `CNC(=O)C(=O)CC[C@H](NC(=O)c1cc(Cl)sc1Cl)C(=O)Nc1cccn(CC(=O)NC2C3CC4CC(C3)CC2C4)c1=O` (stereo partly drawn) [II-28, (S)-2-(2,5-dichlorothiophene-3-carboxamido)-N1-(1-(2-(2-adamantylamino)-2-oxoethyl)-2-oxo-1,2-dihydropyridin-3-yl)-N6-methyl-5-oxohexanediamide], for which, in series [1], the “Kel” value worked out at 0.6 h⁻¹, the CL/F was 247 mL/min/kg, the mean residence time MRT worked out at 1.6 h and the half-life was 1.1 h. Further, in series [1], the AUC(0-t) is 14500 ng·h/mL. For the same compound, the Cmax in series [1] (read-out: Cmax) is 23.3 µM. The Cmax in series [1] (read-out: Cmax [ng/ml]) was 15100 ng/mL. In series [2], the logD lay within 1 to 3. Besides, in series [3] (TG2, table with the PK study), the IC90 came to 240 nM. Also, in series [3] (setting [5]), the IC50 turned out to be 24 nM. In addition, the IC50 in series [3] (setting [6]) is under 40 nM. Moreover, in series [4] (setting [7]), the Papp stood at 7.4 ×10⁻⁶ cm/s. Besides, in series [4] (setting [8]), the Papp lay within 1 to 10 ×10⁻⁶ cm/s.
Regarding `CNC(=O)C(=O)CC[C@H](NC(=O)c1ccc(Cl)s1)C(=O)Nc1cccn(CC(=O)NC2C3CC4CC(C3)CC2C4)c1=O` (stereo partly drawn) [II-24, (S)-2-(5-chlorothiophene-2-carboxamido)-N1-(1-(2-(2-adamantylamino)-2-oxoethyl)-2-oxo-1,2-dihydropyridin-3-yl)-N6-methyl-5-oxohexanediamide], the logD in series [2] was in the range of 1 to 3. Further, the IC50 in series [3] (setting [6]) was 40 to 400 nM. Besides, the Papp in series [4] (setting [8]) fell in the range of 1 to 10 ×10⁻⁶ cm/s.
